US12551475B2, “Methods and compositions for treating RNA viral infections” (Model Medicines, Inc., priority 2020, dated 2026)
Structures can show the parent of a compound that is named as a salt. Where two headings read alike, the source gives them in different places.

How the values were obtained:
[1] = molecular target: lysophosphatidic acyl transferase (LPAAT); settings: cytokine-activated LPAAT; read-out: IC50 (generation of phosphatidic acid); cited from earlier work
[2] = Uninfected host cell cytotoxicity counter screen; format: cell-based, human; settings: human, uninfected HeLa-ACE2 cells; uninfected HeLa-ACE2, 24 h
Description: Compounds were acoustically transferred into 1,536-well clear plates (Greiner Part. No. 789091). HeLa-ACE2 cells were maintained as described for the infection assay and seeded in the assay-ready plates at 400 cells/well in DMEM with 2% FBS and plates were incubated for 24 hours at 37 5% CO2. To assess cell viability, the Image-iT DEAD green reagent (Thermo Fisher) was used according to manufacturer instructions. Cells were fixed with 4% paraformaldehyde, and counterstained with DAPI. Fixed cells were imaged using the ImageXpress Micro Confocal High-Content Imaging System (Molecular Devices) with a 10× objective, and total live cells per well quantified in the acquired images using the Live Dead Application Module (MetaXpress).
Image analysis was carried out with MetaXpress (version 6.5.4.532). Primary in vitro screen and the host cell cytotoxicity counter screen data were uploaded to Genedata Screener, Version 16.0.3-Standard. Data were normalized to neutral (DMSO) […] inhibitor controls (2.5 μM remdesivir for antiviral effect and 10 μM puromycin for infected host cell toxicity). For the uninfected host cell cytotoxicity counter screen 40 μM puromycin (Sigma) was used as the positive control. For dose response experiments compounds were tested in technical triplicates on different assay plates and dose curves were fitted with the four parameter Hill Equation. Technical replicate data were analyzed using median condensing.

SARS-CoV-2 [3] = tested on: SARS-CoV-2
SARS-CoV-2 [4] = experiment: microbe, parasite or virus in culture
S. pneumoniae = settings: various strains; cited from earlier work
S. viridans = settings: various strains; cited from earlier work
S. epidermidis = settings: various strains; cited from earlier work
S. aureus = settings: various strains; cited from earlier work
[5] = tested on: wild-type B-RAF-expressing human foreskin fibroblasts; settings: cited from earlier work
[6] = tested on: B-RAFV^600E-expressing A375P melanoma cells; settings: cited from earlier work
cancer cell lines = settings: cited from earlier work
[7] = molecular target: 3CL Protease (SARS-CoV-2) (Severe acute respiratory syndrome coronavirus 2, UniProt P0DTD1); experiment: 3CL Protease (untagged, SARS-CoV-2) activity assay; format: biochemical
Text: The 3CL Protease Activity Assay described in this example is designed to measure 3CL Protease activity for screening and profiling applications, in a homogeneous assay with no time-consuming washing steps. The assay can be performed in a 96-well format, with purified untagged 3CL Protease, fluorogenic substrate, and 3CL Protease assay buffer for 100 enzyme reactions. 3CL inhibitor GC376 was included as a positive control. See https://bpsbioscience.com/3cl-protease-intagged-sars-cov-2-assay-kit-78042.
3CL Protease (SARS-CoV-2), no tag*; 3CL Protease Substrate (10 mM); 3CL Protease Assay Buffer; GC376, MW=507.5; 0.5 M DTT; Black, low binding microtiter plate; Plate sealing film. Fluorescent microplate reader capable of reading exc/em=360 nm/460 nm
All Samples and Controls were Tested in Duplicate.
• 1) Added 0.5 M DTT to 3CL Protease Assay Buffer so final DTT concentration was 1 mM. (e.g., added 10 μl of 0.5 M DTT to 5 ml assay buffer) (DTT was added just before use. Enough DTT-containing buffer as required for the assay was prepared. Remaining assay buffer was stored at −20° C.). • 2) Thaw 3CL Protease was thawed on ice. Upon first thaw, tube containing enzyme was briefly spun to recover the full content of the tube. Aliquoted 3CL Protease into single use aliquots. Stored remaining undiluted enzyme in aliquots at −80° C. • 3) Diluted 3CL Protease in Assay buffer (with 1 mM DTT) at 0.5 ng/μl (15 ng per reaction). • 4) Added 30 μl diluted 3CL Protease enzyme solution to wells designated as “Positive Control”, “Inhibitor Control” and “Test Sample”. Added 30 μl Assay buffer (with 1 mM DTT) to the “Blank” wells.
• 5) Diluted 50 μg GC376 in 200 μl water to obtain a 500 μM solution. Aliquoted and stored remaining solution in aliquots at −80° C. Added 10 μl GC376 (500 μM) to the wells labeled “Inhibitor Control”. • 6) Prepared the inhibitor solution.
(If the inhibitor compound was dissolved in DMSO, made a 100-fold higher concentration of the compound than the highest concentration tested in DMSO. Then made a 20-fold dilution in 1× assay buffer (at this step the compound concentration is 5-fold higher than the final concentration)).
If the inhibitor compound is dissolved in water, made a solution of the compound 5-fold higher than the final concentration in 3CL Protease assay buffer (with 1 mM DTT). For example, diluting 50 μg GC376 in 200 μl water (step 5) creates a 500 μM solution. Adding 10 μl to the assay (final volume 50 μl) results in a 100 μM final concentration.
7) Added 10 μl inhibitor to each well designated “Test Sample”. Added 10 μl 1× assay buffer or 5% DMSO in water (depending on which inhibitor solution is used) to “Blank” and “Positive Control” wells. • 8) Preincubated enzyme with the inhibitor for 30 min at room temperature with slow shaking. • 9) Diluted 10 mM 3CL Protease substrate 1:50 in assay buffer with DTT, to make a 200 μM solution. Diluted only enough as was required for the assay. • 10) Started reaction by adding 10 μl of the substrate solution to each well (Final concentration of the 3CL Protease substrate in a 50 μl reaction was 40 μM). • 11) Incubated for 4 hours at room temperature with slow shaking. Sealed the plate with the plate sealer. Measured the fluorescence intensity in a microtiter plate-reading fluorimeter capable of excitation at a wavelength 360 nm and detection of emission at a wavelength 460 nm. The fluorescence intensity can also be measured kinetically. “Blank” value was subtracted from all other values. Data Analysis
3CL Protease activity assays were performed in duplicates. The fluorescence data were analyzed using the computer software, Graphpad Prism. In the absence of the compound, the fluorescence (Ft) in each data set was defined as 100% activity. In the absence of the 3CL Protease, the fluorescence (Fb) in each data set was defined as 0% activity. […]

Renal 1983 cell line = settings: read-out: IC50 (antitumor activity in vitro); cited from earlier work
HeLa cells = settings: read-out: IC50 (apoptosis); cited from earlier work
MCF-7 cell line = settings: read-out: IC50 (antitumor activity in vitro); cited from earlier work
thymocytes = settings: read-out: IC50 (apoptosis); cited from earlier work
[8] = in vivo; cited from earlier work
SARS-CoV-2 [9] = settings: ReFRAME screen, same methods (Bakowski et al, 2020); cited from earlier work
[10] = Severe acute respiratory syndrome coronavirus 2, HeLa-ACE2, 24 h

SMILES: C[C@@H](O)CCCCn1c(=O)c2c(ncn2C)n(C)c1=O [(R)-LSF, 3,7-dihydro-1-[(5R)-5-hydroxyhexyl]-3,7-dimethyl-1H-purine-2,6-dione]
- IC50 [1]: 0.6 µM

SMILES: Cc1c2c(nn1C)CSCc1cc(n(C)n1)CSc1cc(c3ccccc3c1)OCCCc1c(C(=O)O)n(C)c3c-2c(Cl)ccc13 [AZD-5991]
- CC50 at 24 h [2]: 0.527 µM
- SI (selectivity index, CC50/EC50) (SARS-CoV-2 [3]): 0.06
- activity in the HeLa-ACE2 cell-based SARS-CoV-2 assay (in words) (SARS-CoV-2 [3]): demonstrated activity
- EC50 (SARS-CoV-2 [4]; [10]): 8.81 µM

SMILES: CCC[C@@H]1C[C@@H](C(=O)N[C@@H]([C@H]2O[C@H](SC)[C@H](O)[C@@H](O)[C@H]2O)[C@H](C)Cl)N(C)C1 [Clindamycin, methyl 7-chloro-6,7,8-trideoxy-6-[[[(2S,4R)-1-methyl-4-propyl-2-pyrrolidinyl]carbonyl]amino]-1-thio-L-threo-α-D-galacto-octopyranoside]
- MIC (S. pneumoniae): 0.002 to 0.1 µg/mL
- MIC (S. viridans): 0.005 to 0.2 µg/mL
- MIC (S. epidermidis): 0.1 to 0.2 µg/mL
- MIC (S. aureus): 0.04 to 1.6 µg/mL

SMILES: CC(C)(C)c1nc(-c2cccc(NS(=O)(=O)c3c(F)cccc3F)c2F)c(-c2ccnc(N)n2)s1 [Dabrafenib, N-[3-[5-(2-amino-4-pyrimidinyl)-2-(1,1-dimethylethyl)-4-thiazolyl]-2-fluorophenyl]-2,6-difluorobenzenesulfonamide]
- EC200 (caspase-3/7 activation) [5]: > 10,000 nM
- EC200 (caspase-3/7 activation) [6]: 71 nM
- GI50 (cancer cell lines; 16 cancer cell lines expressing mutant B-RAFV600E): < 0.2 µM
- GI50 (cancer cell lines; 19 cell lines expressing wild-type Ras and RAF): < 7 µM
- GI50 (cancer cell lines; five cell lines expressing other B-RAF mutants): < 0.03 µM
- GI50 (cancer cell lines; four B-RAFV600E lines, 133 wild-type Ras and Raf lines, 18 mutant Ras lines not inhibited): > 10 µM

SMILES: COc1ccc2c3c1O[C@H]1C[C@@H](O)C=C[C@@]31CCN(C)C2 [Galantamine, (4aS,6R,8aS)-4a,5,9,10,11,12-hexahydro-3-methoxy-11-methyl-6H-benzofuro[3a,3,2-ef][2]benzazepin-6-ol]
- 3CL Protease Activity (Fluorescence count) Repeat1 ([7]; Galantamine 0.009 μM): 759
- 3CL Protease Activity (Fluorescence count) Repeat2 ([7]; Galantamine 0.009 μM): 768
- 3CL Protease Activity (Fluorescence count) Repeat1 ([7]; Galantamine 0.018 μM): 746
- 3CL Protease Activity (Fluorescence count) Repeat2 ([7]; Galantamine 0.018 μM): 752
- 3CL Protease Activity (Fluorescence count) Repeat1 ([7]; Galantamine 0.070 μM): 785
- 3CL Protease Activity (Fluorescence count) Repeat2 ([7]; Galantamine 0.070 μM): 783
- 3CL Protease Activity (Fluorescence count) Repeat1 ([7]; Galantamine 0.14 μM): 737
- 3CL Protease Activity (Fluorescence count) Repeat2 ([7]; Galantamine 0.14 μM): 760
- 3CL Protease Activity (Fluorescence count) Repeat1 ([7]; Galantamine 0.28 μM): 761
- 3CL Protease Activity (Fluorescence count) Repeat2 ([7]; Galantamine 0.28 μM): 797
- 3CL Protease Activity (Fluorescence count) Repeat1 ([7]; Galantamine 4.5 μM): 593
- 3CL Protease Activity (Fluorescence count) Repeat2 ([7]; Galantamine 4.5 μM): 543
- activity at 0.009 µM ([7]; read-out: % Activity Repeat1): 98%
- activity at 0.018 µM ([7]; read-out: % Activity Repeat1): 96%
- activity at 0.07 µM ([7]; read-out: % Activity Repeat1): 102%
- activity at 0.14 µM ([7]; read-out: % Activity Repeat1): 95%
- activity at 0.28 µM ([7]; read-out: % Activity Repeat1): 98%
- activity at 4.5 µM ([7]; read-out: % Activity Repeat1): 74%
- activity at 0.009 µM ([7]; read-out: % Activity Repeat2): 99%
- activity at 0.018 µM ([7]; read-out: % Activity Repeat2): 97%
- activity at 0.07 µM ([7]; read-out: % Activity Repeat2): 102%
- activity at 0.14 µM ([7]; read-out: % Activity Repeat2): 98%
- activity at 0.28 µM ([7]; read-out: % Activity Repeat2): 104%
- activity at 4.5 µM ([7]; read-out: % Activity Repeat2): 66%
- effect on 3CL Protease activity (in words) ([7]; test range 0.009-4.5 μM): inhibited 3CL Protease activity

SMILES: COc1ccc2c(c1OC)C(=O)O[C@@H]2[C@H]1c2c(cc3c(c2OC)OCO3)CCN1C [Noscapine, (3S)-6,7-dimethoxy-3-[(5R)-5,6,7,8-tetrahydro-4-methoxy-6-methyl-1,3-dioxolo[4,5-g]isoquinolin-5-yl]-1(3H)-isobenzofuranone, monohydrochloride]
- IC50 (Renal 1983 cell line): 39.1 µM
- IC50 (HeLa cells): 25 µM
- IC50 (MCF-7 cell line): 42.3 µM
- IC50 (thymocytes): 10 µM

SMILES: CCC(CC)COC(=O)[C@H](C)N[P@](=O)(OC[C@H]1O[C@@](C#N)(c2ccc3c(N)ncnn23)[C@H](O)[C@@H]1O)Oc1ccccc1 [Remdesivir]
- half-life (t 1/2) [8]: 1 h
- increase in EC50 from MOI=1 to MOI=26 (SARS-CoV-2 [3]): 2.7 fold
- EC50 (SARS-CoV-2 [4]; [10]): 0.13 µM

SMILES: Nc1ncnc2c1nc(Cl)n2[C@@H]1O[C@@H]2COP(=O)(O)O[C@H]2[C@H]1O [Tocladesine, 8-chloroadenosine 3′,5′-monophosphate]
- CC50 at 24 h [2]: > 39.8 µM
- SI (selectivity index, CC50/EC50) (SARS-CoV-2 [3]): > 4.15
- activity in the HeLa-ACE2 cell-based SARS-CoV-2 assay (in words) (SARS-CoV-2 [3]): active against COVID-19
- activity in the HeLa-ACE2 cell-based SARS-CoV-2 assay (in words) (SARS-CoV-2 [3]; listed as tocladesine): demonstrated activity
- EC50 (SARS-CoV-2 [4]; [10]): > 9.59 µM

SMILES: Cc1cccc(/C=N/Nc2cc(N3CCOCC3)nc(OCCc3ccccn3)n2)c1 [apilimod]
- increase in EC50 from MOI=1 to MOI=26 (SARS-CoV-2 [3]): 3.7 fold
- Emax (SARS-CoV-2 [4]; Severe acute respiratory syndrome coronavirus 2, HeLa-ACE2, read-out: maximal efficacy (uninfected cells at the highest effective concentrations)): 85 to 90%

SMILES: COc1ccc(C[C@H](N)C(=O)N[C@H]2[C@@H](O)[C@H](n3cnc4c(N(C)C)ncnc43)O[C@@H]2CO)cc1 [puromycin]
- EC50 (SARS-CoV-2 [4]; Severe acute respiratory syndrome coronavirus 2, HeLa-ACE2, read-out: EC50 (total cell numbers per well, compound toxicity in the context of infection)): 0.547 ± 0.027 µM

SMILES: O=C(c1ccc(OCCN2CCCCC2)cc1)c1c(-c2ccc(O)cc2)sc2cc(O)ccc12 [raloxifene]
- EC50 (SARS-CoV-2 [9]): 4.13 µM
